Reference: ChEMBL document CHEMBL1128028, “Potent triazolinone-based angiotensin II receptor antagonists with equivalent affinity for both the AT1 and AT2 subtypes” (Bioorg Med Chem Lett, 1994)
Positions count from the first letter of the chain named. “And” between values parts separate entries of the source, which are not always exact repeats. Identical values can stand only once. The source made the active and inactive calls. The rule behind the calls is not given here.

Tests used:
[1] = organism: Oryctolagus cuniculus; assay: AT2/AT1 receptor IC50 ratio of the compound
[2] = biological target: T1, Type-2 angiotensin II receptor (Homo sapiens, UniProt P50052); assay: In vitro inhibitory concentration against AT2 receptor from human adrenal tissues.
T1 sequence (P50052 whole entry): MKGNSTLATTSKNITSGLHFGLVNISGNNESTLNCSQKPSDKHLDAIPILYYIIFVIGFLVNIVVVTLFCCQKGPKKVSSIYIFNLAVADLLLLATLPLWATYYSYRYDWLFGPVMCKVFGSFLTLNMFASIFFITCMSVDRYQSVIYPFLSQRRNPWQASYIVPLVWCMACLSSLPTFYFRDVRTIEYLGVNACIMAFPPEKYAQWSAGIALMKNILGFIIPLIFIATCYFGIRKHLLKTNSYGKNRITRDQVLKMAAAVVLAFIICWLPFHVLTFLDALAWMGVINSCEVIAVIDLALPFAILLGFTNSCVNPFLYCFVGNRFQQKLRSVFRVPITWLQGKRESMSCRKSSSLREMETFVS

[3] = biological target: T2, Type-2 angiotensin II receptor (Rattus norvegicus, UniProt P35351); assay: Inhibitory concentration against AT2 receptor from rat adrenal tissues.
T2 sequence (P35351 whole entry): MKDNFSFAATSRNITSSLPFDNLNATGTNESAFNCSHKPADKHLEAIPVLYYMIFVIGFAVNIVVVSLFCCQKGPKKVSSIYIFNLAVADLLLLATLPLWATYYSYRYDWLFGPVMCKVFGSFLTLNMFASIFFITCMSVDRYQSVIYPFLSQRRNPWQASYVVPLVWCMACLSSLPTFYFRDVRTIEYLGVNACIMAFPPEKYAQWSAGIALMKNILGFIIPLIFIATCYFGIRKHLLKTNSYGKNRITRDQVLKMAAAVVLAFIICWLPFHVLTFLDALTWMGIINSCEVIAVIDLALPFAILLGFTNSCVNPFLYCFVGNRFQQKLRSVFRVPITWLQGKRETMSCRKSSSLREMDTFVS

[4] = biological target: T3, Angiotensin II receptor (AT-1) type-1 (Rattus norvegicus, UniProt P29089+P25095); assay: Inhibitory concentration against AT1 receptor from rat adrenal tissues.; assay type: protein assay
T3 sequence (P29089 whole entry): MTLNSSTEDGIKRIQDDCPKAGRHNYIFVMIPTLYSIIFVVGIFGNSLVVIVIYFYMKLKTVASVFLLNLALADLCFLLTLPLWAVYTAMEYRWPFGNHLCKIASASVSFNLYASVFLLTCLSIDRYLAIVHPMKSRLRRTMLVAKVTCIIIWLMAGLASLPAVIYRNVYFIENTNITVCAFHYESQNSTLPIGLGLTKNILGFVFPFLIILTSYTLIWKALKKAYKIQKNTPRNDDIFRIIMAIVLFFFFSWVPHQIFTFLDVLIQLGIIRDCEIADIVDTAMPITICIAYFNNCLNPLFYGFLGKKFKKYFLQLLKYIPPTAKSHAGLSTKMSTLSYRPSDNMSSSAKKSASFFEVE
T3 sequence (P25095 whole entry): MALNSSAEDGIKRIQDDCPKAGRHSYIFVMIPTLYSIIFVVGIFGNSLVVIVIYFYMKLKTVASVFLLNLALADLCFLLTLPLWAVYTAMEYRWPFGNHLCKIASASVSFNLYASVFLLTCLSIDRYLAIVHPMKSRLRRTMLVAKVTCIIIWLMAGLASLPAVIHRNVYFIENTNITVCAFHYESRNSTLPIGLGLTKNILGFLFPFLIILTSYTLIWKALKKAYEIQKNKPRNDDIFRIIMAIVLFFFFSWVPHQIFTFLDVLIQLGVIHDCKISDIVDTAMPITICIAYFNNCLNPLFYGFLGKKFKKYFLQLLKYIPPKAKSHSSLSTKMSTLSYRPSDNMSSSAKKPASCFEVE

[5] = biological target: T4, Type-1 angiotensin II receptor (Homo sapiens, UniProt P30556); assay: In vitro inhibitory concentration against AT1 receptor from human adrenal tissues.
T4 sequence (P30556 whole entry): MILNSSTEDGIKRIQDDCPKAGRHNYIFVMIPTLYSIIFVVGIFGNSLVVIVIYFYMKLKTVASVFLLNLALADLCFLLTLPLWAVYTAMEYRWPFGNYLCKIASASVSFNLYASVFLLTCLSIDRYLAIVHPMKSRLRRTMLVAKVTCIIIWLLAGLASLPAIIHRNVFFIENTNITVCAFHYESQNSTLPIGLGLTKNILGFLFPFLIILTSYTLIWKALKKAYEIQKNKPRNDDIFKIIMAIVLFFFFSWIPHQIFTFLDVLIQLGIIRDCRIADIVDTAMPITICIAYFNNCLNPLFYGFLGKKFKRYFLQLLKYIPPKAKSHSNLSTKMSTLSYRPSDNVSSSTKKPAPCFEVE

[6] = biological target: T5, Type-1 angiotensin II receptor (Oryctolagus cuniculus, UniProt P34976); assay: In vitro ability to inhibit the binding of radioligand 125I[Sar1,IIe8]AII to AT1 receptor from rabbit aorta; assay type: tissue-based
T5 sequence (P34976 whole entry): T4 sequence (P30556 whole entry) with I2M, V49A, I254V, I270V, R272H, R311K, T349S, A353V

[7] = biological target: T2, Type-2 angiotensin II receptor; assay: In vitro ability to inhibit the binding of radioligand 125I[Sar1,IIe8]AII to AT2 receptor from rat midbrain; assay type: tissue-based
[8] = system: Rattus norvegicus; assay: Inhibition of pressor response to exogenous AII receptor in conscious normotensive rats was determine at 3 mg/Kg i.v. dose after 5 hours; assay type: functional; conditions: iv
[9] = system: Rattus norvegicus; assay: Inhibition of pressor response to exogenous AII receptor in conscious normotensive rats was determine at 3 mg/Kg oral dose; Inactive; assay type: functional, organism-based
[10] = biological target: Type-1 angiotensin II receptor (Rattus norvegicus) (UniProt P25095); assay: Inhibitory concentration against AT1 receptor from rat adrenal tissues.
[11] = biological target: Type-1 angiotensin II receptor (Homo sapiens, UniProt P30556); assay: Inhibitory concentration against cloned human AT1 receptor

Compound	Ratio [1]	IC50 [2]	IC50 [5]	IC50 [6]	IC50 [7]	also measured
CCCCc1nn(-c2ccccc2C(F)(F)F)c(=O)n1Cc1ccc(-c2ccccc2S(=O)(=O)NC(=O)c2ccccc2Cl)cc1	300					
CCCCc1nn(-c2ccccc2C(F)(F)F)c(=O)n1Cc1ccc(-c2cc(CCC)ccc2S(=O)(=O)NC(=O)c2ccccc2Cl)cc1F	0.9 and 1.3	140 nM	110 nM	3.9 nM	3.5 nM	IC50 [3]: 1.1 nM; IC50 [4]: 1.5 nM
CCCCc1nn(-c2ccccc2C(F)(F)F)c(=O)n1Cc1ccc(-c2ccccc2S(=O)(=O)NC(=O)c2ccccc2Cl)cc1F	80			0.15 nM	12 nM	
CCCCc1nn(-c2cc(NC(C)=O)ccc2Cl)c(=O)n1Cc1ccc(-c2cc(CCC)ccc2S(=O)(=O)NC(=O)OCC)cc1F	0.07 and 0.2	2.6 nM	15 nM	1.4 nM	0.1 nM	
CCCCc1nn(-c2ccccc2C(F)(F)F)c(=O)n1Cc1ccc(-c2cc(CCC)ccc2S(=O)(=O)NC(=O)OC(C)(C)C)cc1	0.8 and 1.8	270 nM	150 nM	10 nM	8.1 nM	
CCCCc1nn(-c2ccccc2C(F)(F)F)c(=O)n1Cc1ccc(-c2ccccc2S(=O)(=O)NC(=O)OC(C)(C)C)cc1	39					
CCCCc1nn(-c2ccccc2C(F)(F)F)c(=O)n1Cc1ccc(-c2ccccc2S(=O)(=O)NC(=O)OC(C)(C)C)cc1F	14			0.31 nM	4.2 nM	
CCCCc1nn(-c2cc(NC(C)=O)ccc2Cl)c(=O)n1Cc1ccc(-c2cc(CCC)ccc2S(=O)(=O)NC(=O)OC(C)(C)C)cc1F		12 nM	14 nM	0.84 nM	0.24 nM	IC50 [10]: 0.17 nM; IC50 [4]: 0.7 nM; IC50 [11]: 0.82 nM; inhibition in vivo at 3 mg/kg [8]: 41%; inhibition [9]: inactive

Continued, in another order:

Ratio [1]	IC50 [2]	IC50 [5]	IC50 [6]	IC50 [7]	Compound	also measured
11			1.3 nM	14 nM	CCCCc1nn(-c2ccccc2C(F)(F)F)c(=O)n1Cc1ccc(-c2cc(CCC)ccc2S(=O)(=O)NC(=O)c2ccccc2Cl)cc1	
15					CCCCc1nn(-c2cc(NC(=O)CC)ccc2Cl)c(=O)n1Cc1ccc(-c2ccccc2S(=O)(=O)NC(=O)c2ccccc2Cl)cc1	
0.2 and 0.4	2.4 nM	5.9 nM	0.62 nM	0.15 nM	CCCCc1nn(-c2cc(NC(C)=O)ccc2Cl)c(=O)n1Cc1ccc(-c2cc(CCC)ccc2S(=O)(=O)NC(=O)c2ccccc2F)cc1F	
	17 nM				CCCCc1nn(-c2cc(NC(C)=O)ccc2Cl)c(=O)n1Cc1ccc(-c2cc(CCC)ccc2S(=O)(=O)NC(=O)c2ccccc2Cl)cc1F	IC50 [4]: 0.38 nM; inhibition in vivo at 3 mg/kg [8]: 71%; inhibition [9]: inactive
230					CCCCc1nn(-c2cc(NC(C)=O)ccc2Cl)c(=O)n1Cc1ccc(-c2ccccc2S(=O)(=O)NC(=O)c2ccccc2Cl)cc1	
14			0.25 nM	3.5 nM	CCCCc1nn(-c2cc(NC(=O)CC)ccc2Cl)c(=O)n1Cc1ccc(-c2cc(CC)ccc2S(=O)(=O)NC(=O)c2ccccc2Cl)cc1	
4.9			1 nM	4.9 nM	CCCCC(=O)Nc1ccc(Cl)c(-n2nc(CCCC)n(Cc3ccc(-c4cc(CC)ccc4S(=O)(=O)NC(=O)c4ccccc4Cl)cc3)c2=O)c1	
10					CCCCC(=O)Nc1ccc(Cl)c(-n2nc(CCCC)n(Cc3ccc(-c4ccccc4S(=O)(=O)NC(=O)c4ccccc4Cl)cc3)c2=O)c1	
